Assay results taken from patent US5962275A, “Method for the enzymatic galactosylation of monosaccharides and oligosaccharides” (Hoechst Aktiengesellschaft, priority 1995, dated 1999).
“Also recorded” adds a separate entry of the source. Read-outs that look alike come from different tables or passages of the source.

How the values were obtained:
Type in all cases: biochemical
[1] = biological target: T1, UDP-glucose 4'-epimerase (Saccharomyces cerevisiae, UniProt P04397); assay: Reactivation of the inactivated epimerase with activator; settings: for time after which renewed inactivation of the epimerase is observed: activator 0.1 mM, galactose and UMP still present in the mixture
T1 sequence (P04397 whole entry): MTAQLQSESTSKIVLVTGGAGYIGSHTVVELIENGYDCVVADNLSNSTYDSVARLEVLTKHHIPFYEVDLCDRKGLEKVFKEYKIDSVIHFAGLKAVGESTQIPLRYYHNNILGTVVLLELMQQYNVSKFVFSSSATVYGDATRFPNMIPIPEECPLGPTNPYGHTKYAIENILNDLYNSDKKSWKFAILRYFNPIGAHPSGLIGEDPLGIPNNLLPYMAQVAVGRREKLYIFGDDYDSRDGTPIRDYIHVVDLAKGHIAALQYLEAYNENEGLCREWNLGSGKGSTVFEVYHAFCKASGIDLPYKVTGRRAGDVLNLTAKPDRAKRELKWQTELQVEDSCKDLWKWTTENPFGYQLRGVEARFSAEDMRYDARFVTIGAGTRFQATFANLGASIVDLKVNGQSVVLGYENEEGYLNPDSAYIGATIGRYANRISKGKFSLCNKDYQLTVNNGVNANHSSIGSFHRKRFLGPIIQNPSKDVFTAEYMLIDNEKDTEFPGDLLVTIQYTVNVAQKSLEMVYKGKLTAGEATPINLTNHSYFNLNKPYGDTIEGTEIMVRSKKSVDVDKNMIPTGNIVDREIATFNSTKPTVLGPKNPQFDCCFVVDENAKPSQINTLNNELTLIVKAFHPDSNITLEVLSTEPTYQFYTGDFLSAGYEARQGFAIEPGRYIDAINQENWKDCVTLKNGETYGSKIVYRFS
Description: Both dUDP-6-deoxy-D-xylo-4-hexulose and dTDP-6-deoxy-D-xylo-4-hexulose, and also 6-deoxyglucosone, galactosone, allosone and glucosone, were used for reactivating the epimerase.
2. Inactivation of the epimerase
1 mg/ml bovine serum albumin (BSA)
3. Activation of the epimerase
160 μl of inactivated epimerase
40 μl of activator (different concentrations)

[2] = biological target: T1, UDP-glucose 4'-epimerase; assay: Stability (rel. activity) of the epimerase in the presence of various donors and acceptors of GalT; settings: for inactivation of the epimerase (in words): donors and acceptors of GalT, acceptors in the presence of UMP
Description: 893 μl of 100 mM glycine buffer, pH 8.8
In order to examine the thesis that the inactivation of the epimerase can occur in association with many applications, the stability of the epimerase was tested in the presence of various donors and acceptors of GalT.
P: 200 mM HepesNaOH, pH 7.2, 1 mM DTT, 1 mg/ml BSA, 25 mM KCl containing
R: Activity following reactivation of the epimerase with
dTDP6-deoxy-D-xylo-4-hexulose (c = 0.1 mM)

[3] = biological target: T1, UDP-glucose 4'-epimerase; assay: Inactivation of the epimerase by sugar in the presence of UMP; settings: 500 mM sucrose, 0.1 mM UMP, Hepes pH 7.2, 30° C., 8 hours
Description: A: 200 mM Hepes pH 7.2, 1 mM DTT, 1 mg/ml BSA B: 200 mM Hepes pH 7.2, 1 mM DTT, 1 mg/ml BSA, 500 mM sucrose A. Buffer solution A B. Buffer solution A, 0.1 mM UMP C. Buffer solution B D. […] Incubation temperature: 30° C. Activity test: (Fukusawa et al., J. Biol. Chem. 255, 2705-2707 (1980)) | 893 μl of 100 mM glycine buffer, pH 8.8 | 20 μl of 5 mM UDP-Gal | 20 μl of 50 mM NAD […] |33.3 μl of epimerase Temperature: 25° C. Measurement at 340 nm

[4] = inactivated epimerase plus activator, different concentrations
[5] = 2 h, pH 7.2, read-out: Rel. activity of the epimerase, incubation time 2h
[6] = 2 h, acceptor 50 mM, buffer P pH 7.2 containing 0.1 mM UMP, read-out: Rel. activity of the epimerase, incubation time 2h
[7] = acceptor 50 mM, buffer P pH 7.2 containing 0.1 mM UMP

SMILES: OC[C@H]1OC(O)[C@H](O)[C@@H](O)[C@H]1O (stereo partly shown) [galactose]
- measured activity of the epimerase after inactivation ([1]; 50 mM galactose, 0.1 mM UMP, 0.25 mg/ml epimerase, 2 h at 30° C.): 3%

SMILES: Cc1cn([C@H]2C[C@H](O)[C@@H](COP(=O)(O)OP(=O)(O)O[C@H]3O[C@H](C)C(=O)[C@H](O)[C@H]3O)O2)c(=O)[nH]c1=O [dTDP-6-deoxy-D-xylo-4-hexulose]
- reactivation of the epimerase (in words) [1]: can be used to reactivate
- time after which renewed inactivation of the epimerase is observed [1]: 32 h
- activation of the epimerase (in words) [1, 4]: rapid and long-lasting activation

SMILES: C[C@H]1O[C@H](OP(=O)(O)OP(=O)(O)OC[C@H]2O[C@@H](n3ccc(=O)[nH]c3=O)C[C@@H]2O)[C@H](O)[C@@H](O)C1=O [dUDP-6-deoxy-D-xylo-4-hexulose]
- reactivation of the epimerase (in words) [1]: can be used to reactivate; also recorded: successfully employed to reactivate the epimerase
- activation of the epimerase (in words) ([1]; 1 mM activator, activity monitored over […]): rapid activation of the epimerase, with the activation being stable over the period of observation
- time after which renewed inactivation of the epimerase is observed [1]: 32 h
- activation of the epimerase (in words) [1, 4]: rapid and long-lasting activation

SMILES: OC[C@H]1OC(O)C[C@@H](O)[C@@H]1O (stereo partly drawn) [2-Deoxyglc, 2-deoxy-D-glucose]
- activity at 50000 µM [2, 5]: 20.7%
- inactivation of the epimerase (in words) [2]: inactivated

SMILES: CC(=O)N[C@H]1C(O)O[C@H](CO)[C@@H](O)[C@@H]1O (stereo partly shown) [GlcNAc, N-acetylglucosamine]
- activity at 50000 µM [2, 6]: 93.6%
- Rel. activity of the epimerase, incubation time 7h [2, 7]: 97.5

SMILES: CCCCCCCCOC1O[C@H](CO)[C@@H](O)[C@H](O)[C@H]1O (stereo partly shown) [n-Octylglucopyranoside, n-octylglucopyranoside]
- activity at 50000 µM [2, 6]: 86.1%
- activity at 50000 µM ([2]; 8 h, acceptor 50 mM, buffer P pH 7.2 containing 0.1 mM UMP, read-out: Rel. activity of the epimerase, incubation time 8h): 29.3%
- Rel. activity of the epimerase, incubation time 7h [2, 7]: 75.6
- inactivation of the epimerase (in words) [2]: inactivated

SMILES: OC[C@H]1O[C@@](CO)(O[C@H]2O[C@H](CO)[C@@H](O)[C@H](O)[C@H]2O)[C@@H](O)[C@@H]1O [sucrose]
- inactivation of the epimerase (in words) [3]: inactivated

SMILES: OC[C@H]1OC(O)[C@H](O)[C@@H](O)[C@@H]1O (stereo partly shown) [Glc, glucose]
- activity at 50000 µM [2, 5]: 15.8%
- inactivation of the epimerase (in words) [2]: inactivated

SMILES: OC[C@H]1SC(O)[C@H](O)[C@@H](O)[C@@H]1O (stereo partly drawn) [Thioglc, 5-thio-D-glucose]
- activity at 50000 µM [2, 6]: 87.9%
- Rel. activity of the epimerase, incubation time 7h [2, 7]: 34.3
- inactivation of the epimerase (in words) [2]: inactivated
